US8367086B1, “Process and product for inhibiting or preventing bacterial infections” (S.S. Steiner, Inc., priority 2004, dated 2013)

Experiments:
Format in all cases: cell-based
[1] = test system: Staphlococcus saprophyticus; assay: paper disc diffusion susceptibility (Kirby-Bauer) method; details: for change of zone of inhibition when lupulone was added: Experiment 1, 0.2 μg/ml β-resin versus antibiotic alone; for zone of inhibition, Experiment 1 Control / zone of inhibition, Experiment 2 Control: antibiotic disc alone; for zone of inhibition, Experiment 1 Control / zone of inhibition, Experiment 2 Control / zone of inhibition, Experiment 1 0.2 μg/ml β-resin / zone of inhibition, Experiment 2 0.2 μg/ml β-resin: 24 hours; for zone of inhibition, Experiment 1 0.2 μg/ml β-resin / zone of inhibition, Experiment 2 0.2 μg/ml β-resin: antibiotic disc with 0.2 μg/ml β-resin in the agar; for zone of inhibition, Xanthohumol Avg / zone of inhibition, Xanthohumol Expt #1 / zone of inhibition, Xanthohumol Expt #2: S. saprophyticus, ciprofloxacin 5 μg on disc
Excerpt: (§1) The first test method to be applied was the paper disc diffusion susceptibility method. In this method a filter paper disc impregnated with a chemical is placed on agar, and the chemical will diffuse from the disc into the agar. If an organism is placed on the agar, it will not grow in the area around the disc if it is susceptible to the chemical. This area of no growth around the disc is known as the zone of inhibition. This disc diffusion method for antibiotic susceptibility is known as the Kirby-Bauer method. In testing the effectiveness of various antibiotics, all factors, e.g., the agar utilized, the depth of the agar, the amount of organism used, and incubation conditions, are maintained constant for the various organisms and antibiotics being tested. […] The size of the zone of inhibition of the particular antimicrobial substance may also be influenced by the diffusion capability of that substance.
(§2) In performing the disc diffusion method tests, a bacterial suspension having an inoculum density of approximately 1×10^8 CFU/ml (colony forming units) was added to 10 ml trypticase soy agar at 46° C. It was mixed thoroughly by vortexing and then poured into a plastic Petri dish. After hardening of the agar, filter paper discs (φ7 mm.) made from Whatman filter paper No. 1 that had been impregnated by the manufacturer, Becton Dickinson, Inc., with the suitable antibiotic, were placed on the agar. In this series of tests the ability of each antibiotic per se to control the growth of the bacteria was measured.
(§3) Another series of agar containing Petri dishes was then prepared using the same bacteria and density thereof as had been prepared for the prior test series. However, here hop compounds were also present in the agar. The hop extract, either lupulone, humulone or xanthohumol, was dissolved in ethanol. While certain of the hop components are only slightly soluble in water, they are very soluble in ethanol. An ethanol control was prepared in the same way.
(§4) The size of the inhibition zones was measured to the nearest mm.
(§5) The concentration of β-acid and xanthohumol is set forth in μg/ml. The zone of inhibition was measured in centimeters. […]

[2] = test system: S. salivarius; assay: minimum inhibitory concentration (MIC) method; details: 37° C. 24 hours
Method: (§6) Another method of determining antimicrobial activity is to assess the Minimum inhibitory concentration (MIC) of the composition under test. […] Thereafter, increased concentrations will have a limiting effect on growth, until the concentration is reached where no growth relative to the control is observed. That point of no growth is the minimum inhibitory concentration. […] A positive control with the bacterium alone was prepared as well as an ethanol control. The tubes were incubated at 37° C. for 24 hours and growth of the bacterium was determined by observing the change in turbidity.

[3] = test system: B. megaterium; assay: minimum inhibitory concentration (MIC) method; details: 37° C. 24 hours
Method: as §6

[4] = test system: S. saprophyticus; assay: minimum inhibitory concentration (MIC) method; details: 37° C. 24 hours
Method: as §6, with “turbidity. […] Since the filing of the original application Ser. […] Pseudomonas fluorescens, Pseudomonas aeruginosa, Proteus vulgaris, Serratia marcescens, Proteus mirabilis and Enterobacter clocae.” for “turbidity.”

[5] = test system: S. salivarius; assay: paper disc diffusion susceptibility method; details: ciprofloxacin 5 μg on disc
Excerpt: as §1, §2, §3, §4, §5

[6] = test system: B. subtilis; assay: paper disc diffusion susceptibility method; details: ciprofloxacin 5 μg on disc
Excerpt: as §1, §2, §3, §4, §5

[7] = test system: B. megaterium; assay: paper disc diffusion susceptibility method; details: ciprofloxacin 5 μg on disc
Excerpt: as §1, §2, §3, §4, §5

penicillin was tested, and the “change of zone of inhibition when lupulone was added” value [1] was “decline”, the “zone of inhibition, Experiment 1 Control” value [1] was 41 mm and the “zone of inhibition, Experiment 2 Control” value [1] was 37 mm. The “zone of inhibition, Experiment 1 0.2 μg/ml β-resin” value [1] was 39 mm and the “zone of inhibition, Experiment 2 0.2 μg/ml β-resin” value [1] was 35 mm.

With neomycin the “zone of inhibition, Experiment 1 Control” value [1] was 23 mm, the “zone of inhibition, Experiment 2 Control” value [1] was 26 mm and the “zone of inhibition, Experiment 1 0.2 μg/ml β-resin” value [1] was 25 mm. For the same compound, the “zone of inhibition, Experiment 2 0.2 μg/ml β-resin” value [1] was 24 mm.

polymyxin B was tested, and the “zone of inhibition, Experiment 1 Control” value [1] was 0 mm, the “zone of inhibition, Experiment 2 Control” value [1] was 0 mm and the “zone of inhibition, Experiment 1 Control” value ([1]; listed as polymyxin B) was “no inhibition zone whatsoever”. The “zone of inhibition, Experiment 2 Control” value ([1]; listed as polymyxin B) was “zero”, the “zone of inhibition, Experiment 1 0.2 μg/ml β-resin” value [1] was 9 mm and the “zone of inhibition, Experiment 2 0.2 μg/ml β-resin” value [1] was 8 mm. The “MIC, agent alone” value ([2]; exp 1) was over 100 µg/mL, the “MIC, agent alone” value ([2]; exp 2) was over 100 µg/mL and the “MIC, agent alone” value ([3]; exp 1) was over 100 µg/mL. The “MIC, agent alone” value ([3]; exp 2) was over 100 µg/mL, the “MIC, agent alone” value ([4]; exp 1) was over 100 µg/mL and the “MIC, agent alone” value ([4]; exp 2) was over 100 µg/mL.

`O=C(O)c1cn(C2CC2)c2cc(N3CCNCC3)c(F)cc2c1=O` [ciprofloxacin, 1-cyclopropyl-6-fluoro-1,4-dihyro-4-oxo-7-(1-piperaznyl)-3-quinolinecarboxylic acid] was tested, and the “zone of inhibition, Xanthohumol Avg” value ([1]; xanthohumol 0 μg/ml) was 0.95 centimeters, the “zone of inhibition, Xanthohumol Expt #1” value ([1]; xanthohumol 0 μg/ml) was 0.9 centimeters and the “zone of inhibition, Xanthohumol Expt #2” value ([1]; xanthohumol 0 μg/ml) was 1.0 centimeters. For the same compound, the “zone of inhibition, Xanthohumol Avg” value ([1]; xanthohumol 3 μg/ml) was 1.5 centimeters, the “zone of inhibition, Xanthohumol Expt #1” value ([1]; xanthohumol 3 μg/ml) was 1.3 centimeters and the “zone of inhibition, Xanthohumol Expt #2” value ([1]; xanthohumol 3 μg/ml) was 1.7 centimeters. For the same compound, the “zone of inhibition, Xanthohumol Avg” value ([5]; xanthohumol 0 μg/ml) was 0.8 centimeters, the “zone of inhibition, Xanthohumol Expt #1” value ([5]; xanthohumol 0 μg/ml) was 0.8 centimeters and the “zone of inhibition, Xanthohumol Expt #2” value ([5]; xanthohumol 0 μg/ml) was 0.8 centimeters. For the same compound, the “zone of inhibition, Xanthohumol Avg” value ([5]; xanthohumol 10 μg/ml) was 2.0 centimeters, the “zone of inhibition, Xanthohumol Expt #1” value ([5]; xanthohumol 10 μg/ml) was 1.9 centimeters and the “zone of inhibition, Xanthohumol Expt #2” value ([5]; xanthohumol 10 μg/ml) was 2.1 centimeters. For the same compound, the “zone of inhibition, Xanthohumol Avg” value ([6]; xanthohumol 0 μg/ml) was 1.0 centimeters, the “zone of inhibition, Xanthohumol Expt #1” value ([6]; xanthohumol 0 μg/ml) was 1.1 centimeters and the “zone of inhibition, Xanthohumol Expt #2” value ([6]; xanthohumol 0 μg/ml) was 0.9 centimeters. For the same compound, the “zone of inhibition, Xanthohumol Avg” value ([6]; xanthohumol 3 μg/ml) was 1.85 centimeters, the “zone of inhibition, Xanthohumol Expt #1” value ([6]; xanthohumol 3 μg/ml) was 2.0 centimeters and the “zone of inhibition, Xanthohumol Expt #2” value ([6]; xanthohumol 3 μg/ml) was 1.7 centimeters. The “zone of inhibition, Xanthohumol Avg” value ([7]; xanthohumol 0 μg/ml) was 0.75 centimeters, the “zone of inhibition, Xanthohumol Expt #1” value ([7]; xanthohumol 0 μg/ml) was 0.8 centimeters and the “zone of inhibition, Xanthohumol Expt #2” value ([7]; xanthohumol 0 μg/ml) was 0.7 centimeters. The “zone of inhibition, Xanthohumol Avg” value ([7]; xanthohumol 3 μg/ml) was 1.75 centimeters, the “zone of inhibition, Xanthohumol Expt #1” value ([7]; xanthohumol 3 μg/ml) was 1.6 centimeters and the “zone of inhibition, Xanthohumol Expt #2” value ([7]; xanthohumol 3 μg/ml) was 1.9 centimeters.

With `CC[C@H]1OC(=O)[C@H](C)[C@@H](O[C@H]2C[C@@](C)(OC)[C@@H](O)[C@H](C)O2)[C@H](C)[C@@H](O[C@@H]2O[C@H](C)C[C@H](N(C)C)[C@H]2O)[C@](C)(O)C[C@@H](C)C(=O)[C@H](C)[C@@H](O)[C@]1(C)O` [ERYTHROMYCIN, erythromycin] the “change of zone of inhibition when lupulone was added” value [1] was “remained constant”, the “zone of inhibition, Experiment 1 Control” value [1] was 23 mm and the “zone of inhibition, Experiment 2 Control” value [1] was 23 mm. For the same compound, the “zone of inhibition, Experiment 1 0.2 μg/ml β-resin” value [1] was 25 mm and the “zone of inhibition, Experiment 2 0.2 μg/ml β-resin” value [1] was 23 mm.
